Reference: patent CN101260112A, “含噻吩并[3.2-c]吡啶的乙酰肼衍生物及其制备方法和用途” (Tianjin Institute of Pharmaceutical Research Co Ltd, priority 2008, dated 2008)

System: ADP-induced platelet aggregation (ADP诱导的血小板聚集)
Assay: Effect of compounds of formula I on ADP-induced platelet aggregation (rats dosed orally, turbidimetric method)
Format: in vivo
Details: male Wistar rat, 10 mg/kg oral gavage, blood taken 2 h after dosing, inducer ADP (final concentration 5 μM), turbidimetry, 37℃; for inhibition at 10 mg/kg: Platelet, vs control, read-out: inhibition rate; for maximum aggregation: control 54.8±5.8

Row | SMILES | inhibition at 10 mg/kg [%] | maximum aggregation
1 | NNC(=O)C(c1ccc(F)cc1)N1CCc2sccc2C1 (stereo not drawn) [化合物1, α,α-[(4-氟苯基)-(4,5,6,7-四氢噻吩并[3,2-c]吡啶-5-基)]乙酰肼] | 48.2 | 28.4±8.1
2 | CC(C)=NNC(=O)C(c1ccc(Cl)cc1)N1CCc2sccc2C1 (stereo not drawn) [化合物2, α,α-[(4-氯苯基)-(4,5,6,7-四氢噻吩并[3,2-c]吡啶-5-基)]-N′-(二甲基甲叉基)乙酰肼] | 58.8 | 22.6±3.9
3 | O=C(NN=Cc1ccccc1Cl)C(c1cccc(Cl)c1)N1CCc2sccc2C1 (stereo not drawn) [化合物3, α,α-[(3-氯苯基)-(4,5,6,7-四氢噻吩并[3,2-c]吡啶-5-基)]-N′-[(2-氯苯基)甲叉基]乙酰肼] | 18.2 | 44.8±11.1
4 | Cc1ccc(C=NNC(=O)C(c2ccc(Cl)cc2)N2CCc3sccc3C2)cc1 (stereo not drawn) [化合物4, α,α-[(4-氯苯基)-(4,5,6,7-四氢噻吩并[3,2-c]吡啶-5-基)]-N′-[(4-甲基苯基)甲叉基]乙酰肼] | 34.3 | 36.0±6.9
5 | O=C(NN=Cc1ccccc1O)C(c1cccc(F)c1)N1CCc2sccc2C1 (stereo not drawn) [化合物5, α,α-[(3-氟苯基)-(4,5,6,7-四氢噻吩并[3,2-c]吡啶-5-基)]-N′-[(2-羟基苯基)甲叉基]乙酰肼] | 33.5 | 38.7±10.6
6 | COc1ccc(C=NNC(=O)C(c2cccc(F)c2)N2CCc3sccc3C2)cc1 (stereo not drawn) [化合物6, α,α-[(3-氟苯基)-(4,5,6,7-四氢噻吩并[3,2-c]吡啶-5-基)]-N′-[(4-甲氧基苯基)甲叉基]乙酰肼] | 32.5 | 33.9±12.3
7 | O=C(NN=Cc1cccc([N+](=O)[O-])c1)C(c1ccc(Cl)c(Cl)c1)N1CCc2sccc2C1 (stereo not drawn) [化合物7, α,α-[(3,4-二氯苯基)-(4,5,6,7-四氢噻吩并[3,2-c]吡啶-5-基)]-N′-[(3-硝基苯基)甲叉基]乙酰肼] | 23.3 | 36.0±9.3
8 | O=C(NN=Cc1ccc(-c2ccc(Cl)cc2)o1)C(c1cccc(Cl)c1)N1CCc2sccc2C1 (stereo not drawn) [化合物8, α,α-[(3-氯苯基)-(4,5,6,7-四氢噻吩并[3,2-c]吡啶-5-基)]-N′-[[5-(4-氯苯)呋喃-2-基]甲叉基]乙酰肼] | 64.4 | 38.7±10.9
9 | O=C(NN=Cc1ccco1)C(c1cccc(F)c1)N1CCc2sccc2C1 (stereo not drawn) [化合物9, α,α-[(3-氟苯基)-(4,5,6,7-四氢噻吩并[3,2-c]吡啶-5-基)]-N′-[(呋喃-2-基)甲叉基]乙酰肼] | 28.6 | 41.0±13.4
10 | CCCCc1nc(Cl)c(C=NNC(=O)C(c2cccc(Cl)c2)N2CCc3sccc3C2)[nH]1 (stereo not drawn) [化合物10, α,α-[(3-氯苯基)-(4,5,6,7-四氢噻吩并[3,2-c]吡啶-5-基)]-N′-[[(2-正丁基-4-氯-咪唑-5-基)甲叉基]乙酰肼] | 39 | 42.9±12.6
11 | O=C(NN=C1CCCCC1)C(c1cccc(Cl)c1)N1CCc2sccc2C1 (stereo not drawn) [化合物11, α,α-[(3-氯苯基)-(4,5,6,7-四氢噻吩并[3,2-c]吡啶-5-基)]-N′-(环己叉基)乙酰肼] | 43.1 | 31.2±12.1
12 | O=C(NN=C1CCCc2ccccc21)C(c1ccc(Cl)cc1)N1CCc2sccc2C1 (stereo not drawn) [化合物12, α,α-[(4-氯苯基)-(4,5,6,7-四氢噻吩并[3,2-c]吡啶-5-基)]-N′-(α-四氢萘叉基)乙酰肼] | 35.3 | 36.2±7.4
13 | COC(=O)[C@H](c1ccccc1Cl)N1CCc2sccc2C1 [硫酸氯吡格雷, reference compound] |  | 9.1±3.5
